In ChEMBL document CHEMBL4177659, “Two new dammarane-type triterpene saponins from Korean red ginseng and their anti-inflammatory effects” (Bioorg Med Chem Lett, 2017):
The source made the active and inactive calls.

How the values were obtained:
Assay type in all cases: functional, cell-based
[1] = system: RAW264.7; test: Antiinflammatory activity against mouse RAW264.7 cells assessed as inhibition of LPS induced iNOS expression at 10 uM preincubated for 2 hrs followed by LPS challenge measured after 24 hrs by Western blot method
[2] = system: RAW264.7; test: Antiinflammatory activity against mouse RAW264.7 cells assessed as inhibition of LPS induced IL-6 release 10 uM preincubated for 2 hrs followed by LPS challenge measured after 24 hrs by sandwich ELISA
[3] = system: RAW264.7; test: Antiinflammatory activity against mouse RAW264.7 cells assessed as inhibition of LPS induced TNFalpha release preincubated for 2 hrs followed by LPS challenge measured after 24 hrs by sandwich ELISA
[4] = system: RAW264.7; test: Antiinflammatory activity against mouse RAW264.7 cells assessed as inhibition of LPS induced cox-2 expression at 10 uM preincubated for 2 hrs followed by LPS challenge measured after 24 hrs by Western blot method
[5] = system: RAW264.7; test: Antiinflammatory activity against mouse RAW264.7 cells assessed as inhibition of LPS induced iNOS expression at 20 uM preincubated for 2 hrs followed by LPS challenge measured after 24 hrs by Western blot method
[6] = system: RAW264.7; test: Antiinflammatory activity against mouse RAW264.7 cells assessed as inhibition of LPS induced cox-2 expression at 20 uM preincubated for 2 hrs followed by LPS challenge measured after 24 hrs by Western blot method

Measured: Activity

CC(C)=CCC[C@@](C)(O)[C@H]1CC[C@]2(C)[C@@H]1[C@H](O)C[C@@H]1[C@@]3(C)CCC(=O)C(C)(C)[C@@H]3[C@@H](O[C@@H]3O[C@H](CO)[C@@H](O)[C@H](O)[C@H]3O)C[C@]12C
active: [1] | [2] | [3] Dose-dependent effect | [4]

Cc1ccc(-c2cc(C(F)(F)F)nn2-c2ccc(S(N)(=O)=O)cc2)cc1
active: [5] | [6]
